Assay results taken from ChEMBL document CHEMBL1201862, “PubChem BioAssay data set” (2004).
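In this assay, cells in 96-well plates receive the compound at five concentrations for 48 hours. Endpoints are linearly interpolated between the surrounding concentrations. Here, GI50 denotes the concentration required for 50% inhibition of growth.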 Calls of active or inactive are those of the source. Cut-off read from the data, not from the text of the source: active = GI50 up to about 1.1 µM and inactive = higher.

How the values were obtained:
Test in all cases: NCI anticancer screen, dose series, 48 h
[1] = test system: A498
[2] = test system: COLO 205
[3] = test system: EKVX
[4] = test system: HL-60
[5] = test system: HT-29
[6] = test system: KM12
[7] = test system: MDA-N
[8] = test system: Malme-3M
[9] = test system: NCI-H226
[10] = test system: NCI-H23
[11] = test system: NCI-H522
[12] = test system: SK-MEL-5
[13] = test system: SK-OV-3
[14] = test system: SNB-75
[15] = test system: SR
[16] = test system: TK-10
[17] = test system: HOP-92

Measured: GI50

COc1ccccc1N/C(=C\C(=O)C(=O)NC12CC3CC(CC(C3)C1)C2)c1ccccc1
inactive: [1] > 10 µM | [2] > 10 µM | [3] > 10 µM | [4] > 10 µM | [5] > 10 µM | [6] > 10 µM | [7] > 10 µM | [8] 3.36 µM | [9] > 10 µM | [10] > 10 µM | [11] > 10 µM | [12] > 10 µM | [13] > 10 µM | [14] > 10 µM | [15] > 10 µM | [16] > 10 µM

COC(=O)c1cc(=O)nc2sc3cccc(C)c3n12
inactive: [2] 14.3 µM | [3] 29.6 µM | [4] 19 µM | [17] 30.2 µM | [5] 28.5 µM | [6] > 100 µM | [7] 44 µM | [8] 23.9 µM | [9] 18.7 µM | [10] 55 µM | [11] 23.2 µM | [12] 60.7 µM | [13] > 100 µM | [14] > 100 µM | [15] 24 µM | [16] > 100 µM

COC(=O)c1c(O)ccc2c1c1c(n2Cc2ccc(OC)cc2)C(=O)c2ccccc2C1
inactive: [1] > 100 µM | [2] 16.9 µM | [4] > 100 µM | [5] 21.7 µM | [6] 63.7 µM | [7] 53.1 µM | [8] > 100 µM | [9] > 100 µM | [10] 63.4 µM | [12] 44.6 µM | [13] 31 µM | [14] 51.2 µM | [15] 66.2 µM | [16] 84.1 µM

Cc1ccc(NC(=S)C#N)cc1Cl
inactive: [1] 26.7 µM | [2] 20.9 µM | [3] 42.2 µM | [17] 13.4 µM | [5] 30.1 µM | [6] 37.8 µM | [7] 41.7 µM | [8] 23.4 µM | [9] 24.3 µM | [10] 33.8 µM | [12] 24 µM | [13] 26.5 µM | [14] 21.5 µM | [15] 27 µM | [16] 60.4 µM

CC1(C)C2CC(=O)C1(C)C(OCc1ccccc1)C2 (stereo not given)
inactive: [1] > 100 µM | [2] 29.6 µM | [3] > 100 µM | [4] 24.4 µM | [5] 40.6 µM | [6] 60.8 µM | [7] 47.3 µM | [8] 32.9 µM | [9] > 100 µM | [10] 27.2 µM | [11] 22.2 µM | [12] 26.3 µM | [13] 54.8 µM | [14] 34.2 µM | [15] 25.1 µM | [16] 23.4 µM

Cn1c(=O)cc(NCCc2ccccc2)[nH]c1=O
inactive: [1] 46 µM | [2] 31.6 µM | [3] 54.7 µM | [4] > 10 µM | [17] > 100 µM | [5] 25.5 µM | [6] 15.3 µM | [7] 3.7 µM | [8] 34.8 µM | [9] > 100 µM | [10] 91.8 µM | [12] 18.8 µM | [13] 53.6 µM | [14] 19.9 µM | [15] 9.1 µM | [16] > 100 µM

NC(=O)CC[C@H]1C(=O)N=C(N)N1C(=O)OCc1ccccc1
inactive: [1] > 100 µM | [2] > 100 µM | [3] > 100 µM | [4] > 100 µM | [5] > 100 µM | [6] > 100 µM | [7] > 100 µM | [8] > 100 µM | [9] > 100 µM | [10] > 100 µM | [11] > 100 µM | [12] > 100 µM | [14] > 100 µM | [15] > 100 µM | [16] > 100 µM

COc1ccc(-c2nc(-c3cnccn3)n(C3OC(CO)C(O)C(O)C3O)n2)cc1 (stereo not given)
inactive: [2] > 100 µM | [3] > 100 µM | [4] > 100 µM | [17] > 100 µM | [5] > 100 µM | [6] > 100 µM | [7] > 100 µM | [10] > 100 µM | [11] > 100 µM | [12] > 100 µM | [13] > 100 µM | [14] > 100 µM | [15] > 100 µM | [16] > 100 µM

c1ccc(/C(=N/Nc2cnccn2)c2ncccn2)cc1
inactive: [2] 32.1 µM | [3] 18.2 µM | [17] 35.7 µM | [5] 27.4 µM | [6] 39 µM | [7] > 100 µM | [10] > 100 µM | [11] 14.9 µM | [12] 39.9 µM | [13] 57.7 µM | [14] 13.7 µM | [15] 12.9 µM

O=[N+]([O-])C1CC/C(=N/O)c2nonc21 (stereo not given)
inactive: [1] > 10 µM | [2] > 10 µM | [3] > 10 µM | [4] > 10 µM | [17] > 10 µM | [5] > 10 µM | [6] > 10 µM | [7] > 10 µM | [8] > 10 µM | [9] > 10 µM | [10] > 10 µM | [12] > 10 µM | [15] > 10 µM | [16] > 10 µM

CC(C)(C)[Si](C)(C)OCC1OC(n2cnc3c(N)ncnc32)C(O)C1O (stereo not given)
inactive: [2] > 100 µM | [3] > 100 µM | [4] > 100 µM | [5] > 100 µM | [6] 37.3 µM | [7] > 100 µM | [8] > 100 µM | [9] > 100 µM | [10] 71 µM | [11] > 100 µM | [12] 26.5 µM | [13] 30.7 µM | [14] 59.8 µM | [15] 60.8 µM | [16] > 100 µM

Cc1cc2c(cc1C)C(=O)C1(C2)Cc2c(ccc(C)c2C)C1=O (stereo not given)
inactive: [2] > 100 µM | [3] > 100 µM | [4] > 100 µM | [17] 79.4 µM | [6] > 100 µM | [7] > 100 µM | [8] 98.6 µM | [9] > 100 µM | [11] > 100 µM | [12] > 100 µM | [14] 64.6 µM | [15] > 100 µM | [16] > 100 µM

COc1c(C)c(C/C=C(\C)CCCC(C)CCCC(C)CCCC(C)C)c(OC)c2ccccc12 (stereo not given)
inactive: [2] > 100 µM | [3] > 100 µM | [17] > 100 µM | [5] > 100 µM | [6] > 100 µM | [7] > 100 µM | [10] > 100 µM | [11] > 100 µM | [12] > 100 µM | [13] > 100 µM | [14] > 100 µM | [15] > 100 µM | [16] > 100 µM

CN1C(=O)C(CC=O)(C(C)(C)C)c2ccccc21 (stereo not given)
inactive: [1] > 100 µM | [2] > 100 µM | [4] > 100 µM | [17] 69 µM | [6] > 100 µM | [7] 33.3 µM | [10] > 100 µM | [12] > 100 µM | [13] > 100 µM | [14] 99.5 µM | [15] > 100 µM
